Test results reported in patent US5025027A, “Cyclic carbamate analogues of (+)-pilocarpine” (Regents of the University of California, priority 1989, dated 1991).

What was measured:
muscarinic receptors = target: T1, muscarinic receptors (Cavia porcellus, UniProt H0W1Z3); test: Guinea pig ileum bioassay (isotonic contractions); details: for muscarinic agonist activity (in words) / EC50 / potency compared with pilocarpine (in words): guinea pig ileum; for muscarinic agonist activity (in words) / EC50: in vitro; for EC50: read-out: ED50 (the source's name); for potency compared with pilocarpine (in words): relative to pilocarpine; for contractions of guinea pig ileum (FIG. 1), in words: single doses, 9, 10, 8 in increasing order of potency
T1 construct: a distal portion of guinea pig ileum was cut and a segment (1-1.5 cm) was tied at both ends; from tissue; host or cells: guinea pig distal ileum segment (isolated organ bath)
T1 sequence (H0W1Z3 1-590): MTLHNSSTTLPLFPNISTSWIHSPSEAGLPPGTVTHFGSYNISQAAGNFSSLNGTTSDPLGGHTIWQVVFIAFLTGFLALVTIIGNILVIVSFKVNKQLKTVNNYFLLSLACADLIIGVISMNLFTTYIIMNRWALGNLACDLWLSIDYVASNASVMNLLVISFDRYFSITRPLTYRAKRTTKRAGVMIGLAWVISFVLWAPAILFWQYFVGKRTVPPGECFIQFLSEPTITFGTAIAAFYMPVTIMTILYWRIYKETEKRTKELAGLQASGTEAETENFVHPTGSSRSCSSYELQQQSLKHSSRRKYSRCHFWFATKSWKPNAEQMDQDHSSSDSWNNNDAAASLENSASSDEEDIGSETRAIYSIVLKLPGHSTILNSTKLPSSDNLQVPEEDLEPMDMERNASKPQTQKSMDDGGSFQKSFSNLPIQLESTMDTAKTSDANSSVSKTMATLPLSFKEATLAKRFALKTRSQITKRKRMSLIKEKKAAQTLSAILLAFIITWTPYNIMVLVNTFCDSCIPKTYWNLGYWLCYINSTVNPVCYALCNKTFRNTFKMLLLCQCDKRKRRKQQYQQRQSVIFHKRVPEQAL
Protocol: Guinea Pig Ileum Bioassay. Briefly, a distal portion of guinea pig ileum was cut and a segment (1-1.5 cm) was tied at both ends. One end was connected to a force displacement transducer and the other end to the muscle holder in a 5 ml organ bath. […] After the tissue was allowed to equilibrate for 45-60 minutes, single doses of agonists were administered into the bath and isotonic contractions were recorded on a Grass polygraph.

[1] = cited from earlier work; for pharmacological activity (in words): products of lactone cleavage or epimerization of pilocarpine; for activity of pilocarpine analogues (in words): less active than pilocarpine
[2] = cited from earlier work

Compound	muscarinic agonist activity (in words) (muscarinic receptors)	EC50 (muscarinic receptors) [µM]	potency compared with pilocarpine (in words) (muscarinic receptors)	contractions of guinea pig ileum (FIG. 1), in words (muscarinic receptors)	also measured
CCN1C(=O)OC[C@@H]1Cc1cn(Cc2ccccc2)cn1 [Compound 6, (S)-3-Ethyl-4-(1,'-benzyl-4'-imidazolyl)methyl-2-oxazolidinone]	inactive	–	–	–	–
CCN1C(=O)OC[C@@H]1Cc1cn(C)cn1 [Compound 10, (S)-3-Ethyl-4-(1'-methyl-4'-imidazolyl)methyl-2-oxazolidinone]	weaker muscarinic agonists	14	less active	cholinergic muscarinic agonists	–
CC[C@H]1C(=O)OC[C@@H]1Cc1cncn1C [isopilocarpine]	–	–	–	–	pharmacological activity (in words) [1]: essentially pharacologically inactive
CC[C@@H]1C(=O)OC[C@@H]1Cc1cn(C)cn1 [neopilocarpine]	–	–	–	–	activity of pilocarpine analogues (in words) [1]: less active
CC[C@H](C(=O)O)[C@H](CO)Cc1cncn1C [pilocarpic acid]	–	–	–	–	pharmacological activity (in words) [1]: essentially pharacologically inactive
CC[C@@H]1C(=O)OC[C@@H]1Cc1cnc[nH]1 [pilocarpidine]	–	–	–	–	activity of pilocarpine analogues (in words) [1]: less active
CC[C@@H]1C(=O)OC[C@@H]1Cc1cncn1C [pilocarpine]	–	–	–	–	duration of biological activity (in words) ([1]; due to hydrolytic cleavage of the lactone ring and/or epimerization): short duration of biological activity; side effects on administration for long periods (in words) ([2]; administered for long periods): without side effects; effect on intraocular pressure (in words) ([2]; narrow and wide angle glaucoma): decreases the intraocular pressure; duration of intraocular pressure lowering ([2]; topical miotic): about three

Further lines, with some results ahead:

muscarinic agonist activity (in words) (muscarinic receptors)	EC50 (muscarinic receptors) [µM]	potency compared with pilocarpine (in words) (muscarinic receptors)	contractions of guinea pig ileum (FIG. 1), in words (muscarinic receptors)	Compound	also measured
inactive	–	–	–	CCN1C(=O)OC[C@@H]1Cc1c[n+](Cc2ccccc2)cn1C [Compound 7]	–
–	1	equipotent with pilocarpine	cholinergic muscarinic agonists	CCN1C(=O)OC[C@@H]1Cc1cncn1C [Compound 8, (S)-3-Ethyl-4-(1'-methyl-5'-imidazolyl)methyl-2-oxazolidinone]	log concentration-response curves (in words) (muscarinic receptors; pilocarpine and 8 compared): parallel log concentration-response curves
weaker muscarinic agonists	180	less active	cholinergic muscarinic agonists	CCN1C(=O)OC[C@@H]1Cc1c[nH]cn1 [Compound 9, (S)-3-Ethyl-4-(4'-imidazolyl)methyl-2-oxazolidinone]	–
